Test results from paper PMC12814364 (Journal of the American Chemical Society, 2025).
Like-named read-outs stand apart in the source and are kept apart here.

Experiments:
[1] = molecular target: T1, HBHA110–199 (Mycobacterium tuberculosis, UniProt P9WIP9); type: binding
[2] = molecular target: T1, HBHA110–199; experiment: Circular dichroism of HBHA110–199 with added sugar; conditions: data not shown
[3] = molecular target: T2, full-length HBHA (Mycobacterium tuberculosis, UniProt P9WIP9); experiment: Far-UV circular dichroism of full-length HBHA with added sugar
T2 sequence (P9WIP9 1-199): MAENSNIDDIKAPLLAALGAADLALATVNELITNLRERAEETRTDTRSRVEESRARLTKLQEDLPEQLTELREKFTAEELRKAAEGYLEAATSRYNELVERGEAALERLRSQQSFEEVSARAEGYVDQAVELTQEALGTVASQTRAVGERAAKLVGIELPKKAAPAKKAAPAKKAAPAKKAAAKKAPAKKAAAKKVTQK

[4] = molecular target: T1, HBHA110–199; experiment: ITC binding of HS hexadecasaccharides with HBHA110–199

## O=C(O)[C@@H]1O[C@@H](O[C@H]2[C@H](O)[C@@H](NS(=O)(=O)O)[C@@H](O[C@H]3[C@H](O)[C@@H](OS(=O)(=O)O)[C@H]4OC[C@@H]3O4)O[C@@H]2COS(=O)(=O)O)[C@H](OS(=O)(=O)O)[C@@H](O)[C@@H]1O[C@H]1O[C@H](COS(=O)(=O)O)[C@@H](O[C@@H]2O[C@@H](C(=O)O)[C@@H](O[C@H]3O[C@H](COS(=O)(=O)O)[C@@H](O[C@@H]4O[C@@H](C(=O)O)[C@@H](O[C@H]5O[C@H](COS(=O)(=O)O)[C@@H](O[C@@H]6O[C@@H](C(=O)O)[C@@H](O[C@H]7O[C@H](COS(=O)(=O)O)[C@@H](O[C@@H]8O[C@@H](C(=O)O)[C@@H](O[C@H]9O[C@H](COS(=O)(=O)O)[C@@H](O[C@@H]%10O[C@@H](C(=O)O)[C@@H](O[C@H]%11O[C@H](COS(=O)(=O)O)[C@@H](O[C@@H]%12O[C@@H](C(=O)O)[C@@H](O[C@H]%13O[C@H](COS(=O)(=O)O)[C@@H](O)[C@H](O)[C@H]%13NS(=O)(=O)O)[C@H](O)[C@H]%12OS(=O)(=O)O)[C@H](O)[C@H]%11NS(=O)(=O)O)[C@H](O)[C@H]%10OS(=O)(=O)O)[C@H](O)[C@H]9NS(=O)(=O)O)[C@H](O)[C@H]8OS(=O)(=O)O)[C@H](O)[C@H]7NS(=O)(=O)O)[C@H](O)[C@H]6OS(=O)(=O)O)[C@H](O)[C@H]5NS(=O)(=O)O)[C@H](O)[C@H]4OS(=O)(=O)O)[C@H](O)[C@H]3NS(=O)(=O)O)[C@H](O)[C@H]2OS(=O)(=O)O)[C@H](O)[C@H]1NS(=O)(=O)O [compound 24]
[1]; Average of Repeat I P(KKAA), residue 160-164, read-out: Dissociation constant from NMR cross-peak movement, average
  Kd: 8.7 µM
[1]; Average of Repeat II P(AKKAA), residue 165-170, read-out: Dissociation constant from NMR cross-peak movement, average
  Kd: 3.2 µM
[1]; Average of Repeat III P(AKKAA), residue 171-176, read-out: Dissociation constant from NMR cross-peak movement, average
  Kd: 2.9 µM
[1]; Average of Repeat IV P([…]), residue 177-186, read-out: Dissociation constant from NMR cross-peak movement, average
  Kd: 1.4 µM
[1]; Average of Repeat V P([…]), residue 187-196, read-out: Dissociation constant from NMR cross-peak movement, average
  Kd: 1.6 µM
[1]; from NMR cross-peak movement, read-out: average KD in the most perturbed region (residues 178–199)
  Kd: 1.5 µM
[1]; protein-to-sugar molar ratio 1:2, all residues
  average Δδresidue (weighted chemical shift deviation) of HBHA110–199: 0.035 ppm
[1]; residue A163, Repeat I, read-out: Dissociation constant from NMR cross-peak movement
  Kd: 9.5 µM
[1]; residue A164, Repeat I, read-out: Dissociation constant from NMR cross-peak movement
  Kd: 5.4 µM
[1]; residue A166, Repeat II, read-out: Dissociation constant from NMR cross-peak movement
  Kd: 3.2 µM
[1]; residue A169, Repeat II, read-out: Dissociation constant from NMR cross-peak movement
  Kd: 5.5 µM
[1]; residue A170, Repeat II, read-out: Dissociation constant from NMR cross-peak movement
  Kd: 2.5 µM
[1]; residue A172, Repeat III, read-out: Dissociation constant from NMR cross-peak movement
  Kd: 2.2 µM
[1]; residue A175, Repeat III, read-out: Dissociation constant from NMR cross-peak movement
  Kd: 2.3 µM
[1]; residue A176, Repeat III, read-out: Dissociation constant from NMR cross-peak movement
  Kd: 1.4 µM
[1]; residue A178, Repeat IV, read-out: Dissociation constant from NMR cross-peak movement
  Kd: 0.8 µM
[1]; residue A181, Repeat IV, read-out: Dissociation constant from NMR cross-peak movement
  Kd: 1.4 µM
[1]; residue A182, Repeat IV, read-out: Dissociation constant from NMR cross-peak movement
  Kd: 1 µM
[1]; residue A183, Repeat IV, read-out: Dissociation constant from NMR cross-peak movement
  Kd: 0.7 µM
[1]; residue A186, Repeat IV, read-out: Dissociation constant from NMR cross-peak movement
  Kd: 0.8 µM
[1]; residue A188, Repeat V, read-out: Dissociation constant from NMR cross-peak movement
  Kd: 0.8 µM
[1]; residue A191, Repeat V, read-out: Dissociation constant from NMR cross-peak movement
  Kd: 1.5 µM
[1]; residue A192, Repeat V, read-out: Dissociation constant from NMR cross-peak movement
  Kd: 2.1 µM
[1]; residue A193, Repeat V, read-out: Dissociation constant from NMR cross-peak movement
  Kd: 1 µM
[1]; residue K161, Repeat I, read-out: Dissociation constant from NMR cross-peak movement
  Kd: 12.9 µM
[1]; residue K162, Repeat I, read-out: Dissociation constant from NMR cross-peak movement
  Kd: 6.8 µM
[1]; residue K167, Repeat II, read-out: Dissociation constant from NMR cross-peak movement
  Kd: 1.7 µM
[1]; residue K168, Repeat II, read-out: Dissociation constant from NMR cross-peak movement
  Kd: 3.2 µM
[1]; residue K173, Repeat III, read-out: Dissociation constant from NMR cross-peak movement
  Kd: 1.7 µM
[1]; residue K174, Repeat III, read-out: Dissociation constant from NMR cross-peak movement
  Kd: 6.7 µM
[1]; residue K179, Repeat IV, read-out: Dissociation constant from NMR cross-peak movement
  Kd: 1.3 µM
[1]; residue K190, Repeat V, read-out: Dissociation constant from NMR cross-peak movement
  Kd: 1.2 µM
[1]; residue K194, Repeat V, read-out: Dissociation constant from NMR cross-peak movement
  Kd: 1.1 µM
[1]; residue K195, Repeat V, read-out: Dissociation constant from NMR cross-peak movement
  Kd: 2.9 µM
[1]; residue V196, Repeat V, read-out: Dissociation constant from NMR cross-peak movement
  Kd: 2.3 µM
[2]
  changes in CD spectra of HBHA110–199: no noteworthy changes
[3]; HBHA:compound 1:0.5
  random coil of full-length HBHA: 52.4%
  β-sheet of full-length HBHA: 24.0%
[3]; HBHA:compound 1:0.5, far-UV CD 195–260 nm
  α-helix of full-length HBHA: 23.6%
[3]; HBHA:compound 1:1
  random coil of full-length HBHA: 51.9%
  α-helix of full-length HBHA: 24.9%
  β-sheet of full-length HBHA: 23.2%
[3]; HBHA:compound 1:1.5
  random coil of full-length HBHA: 52.2%
  α-helix of full-length HBHA: 24.4%
  β-sheet of full-length HBHA: 23.4%
[3]; estimated by Dichroweb, roughly 16 residues
  increase in α-helical content of bound HBHA: approximately 8%
[4]; 25 °C, Tris buffer pH 7.6
  n (sugar-to-protein binding ratio): 0.27 ± 0.01
  ΔG: –7.82 ± 0.02 kcal/mol
  ΔH: 16.00 ± 0.00 kcal/mol
  –TΔS: –23.85 ± 0.08 kcal/mol
[4]; Tris buffer pH 7.6, 25 °C, two trials, average ± standard deviation, read-out: dissociation constant, KD
  Kd: 1.87 ± 0.06 µM
